US4160839A, “Carbamyltriazole insecticides” (priority 1976, dated 1979)

Columns and labels:
Assay type in all cases: in vivo
[1] = test system: Mexican bean beetle (MBB) larvae; assay: Spray test, Mexican bean beetle (MBB) larvae on bean leaves; conditions: approx. 48 h after spraying
Method: (§1) Three 5 oz paper cups containing Henderson dwarf lima bean plants and one 5 oz paper cup containing Orange Gem nasturtiums, all growing in vermiculite, are placed on a turntable and sprayed to thorough wetness with 25 ml of a solution of the candidate chemical at the appropriate concentration. Nasturtiums were already infested with 50-100 bean aphids (BA). A bean plant in one paper cup was already infested with 50-100 two-spotted mites (TSM). Leaves from the two remaining bean plants are removed following spraying and placed in disposable petri dishes with 5 southern armyworm (SA) larvae in one petri dish, and 5 Mexican bean beetle (MBB) larvae in the other petri dish. The rating is done approximately 48 hours after spraying as follows:
(§2) So as to obtain more meaningful results, all tests are performed at the same time of day, whenever possible, usually in the forenoon. Temperature,illumination and humidity are the same in all tests. Atmospheric pressure is not controlled.
(§3) Results obtained with the novel insecticides of this invention at various concentrations of active chemical are tabulated below. The ratings given are for averages of three or more replicates. The oral lethal dose for 50 percent kill of laboratory rats is also recorded in the table. In conducting the toxicity tests on rats, 0.01 g of active chemical per ml in corn oil is employed as an additive to the diet of the animals.

[2] = test system: southern armyworm (SA) larvae; assay: Spray test, southern armyworm (SA) larvae on bean leaves; conditions: approx. 48 h after spraying
Method: as §1, §2, §3

bean aphids (BA) = assay: Spray test, bean aphids (BA) on nasturtiums; conditions: approx. 48 h after spraying
Method: as §1, §2, §3

two-spotted mites (TSM) = assay: Spray test, two-spotted mites (TSM) on bean plants; conditions: approx. 48 h after spraying
Method: as §1, §2, §3

[3] = test system: Southern Corn Rootworm (SCR); assay: Southern Corn Rootworm (SCR) soil treatment test, root feeding damage on corn; design: scale not given here; conditions: nine days after treatment
Method: Three 5 oz paper cups planted each with one kernel of DeKalb XL-361 corn are treated two days after planting with 10 ml of a 125 ppm solution of the candidate compound. Compounds with high efficacy are treated at lower concentrations. The experiment is a 4×5 factorial in a randomized complete block design with three replications. The tests are evaluated nine days after treatment. The roots are inspected under a dissecting microscope and rated as follows:
as §2, §3

C=C(Br)CSc1nc(C2CC2)nn1C(=O)N(C)C
MBB rating (larvae dead) ([1]; 500 ppm): 2 (26-50% larvae dead) | SA rating (larvae dead) ([2]; 500 ppm): 0 (no larvae dead) | BA rating (dead) (bean aphids (BA); 4 ppm): 0 (none dead) | BA rating (dead) (bean aphids (BA); 8 ppm): 2 (26-50% dead) | BA rating (dead) (bean aphids (BA); 15 ppm): 4 (76-99% dead) | BA rating (dead) (bean aphids (BA); 31 ppm): 5 (100% dead) | BA rating (dead) (bean aphids (BA); 62 ppm): 5 (100% dead) | BA rating (dead) (bean aphids (BA); 125 ppm): 5 (100% dead) | BA rating (dead) (bean aphids (BA); 250 ppm): 5 (100% dead) | BA rating (dead) (bean aphids (BA); 500 ppm): 5 (100% dead) | TSM rating (dead adults) (two-spotted mites (TSM); 500 ppm): 2 (26-50% dead adults) | SCR Rating (root feeding damage) ([3]; 50 ppm): 0.3 | SCR Rating (root feeding damage) ([3]; 100 ppm): 4.3

C=C(Br)CSc1nc(C(C)(C)C)nn1C(=O)N(C)C
MBB rating (larvae dead) ([1]; 500 ppm): 2 (26-50% larvae dead) | SA rating (larvae dead) ([2]; 500 ppm): 0 (no larvae dead) | BA rating (dead) (bean aphids (BA); 4 ppm): 4 (76-99% dead) | BA rating (dead) (bean aphids (BA); 8 ppm): 4 (76-99% dead) | BA rating (dead) (bean aphids (BA); 15 ppm): 5 (100% dead) | BA rating (dead) (bean aphids (BA); 31 ppm): 5 (100% dead) | BA rating (dead) (bean aphids (BA); 62 ppm): 5 (100% dead) | BA rating (dead) (bean aphids (BA); 125 ppm): 5 (100% dead) | BA rating (dead) (bean aphids (BA); 250 ppm): 5 (100% dead) | BA rating (dead) (bean aphids (BA); 500 ppm): 5 (100% dead) | TSM rating (dead adults) (two-spotted mites (TSM); 15 ppm): 0 (no dead adults) | TSM rating (dead adults) (two-spotted mites (TSM); 31 ppm): 0 (no dead adults) | TSM rating (dead adults) (two-spotted mites (TSM); 62 ppm): 0 (no dead adults) | TSM rating (dead adults) (two-spotted mites (TSM); 125 ppm): 0 (no dead adults) | TSM rating (dead adults) (two-spotted mites (TSM); 250 ppm): 0 (no dead adults) | TSM rating (dead adults) (two-spotted mites (TSM); 500 ppm): 4 (76-99% dead adults)

C=CC(C)Sc1nc(C(C)(C)C)nn1C(=O)N(C)C (stereo not drawn) [R=1-methylallyl, R'=tert.butyl]
MBB rating (larvae dead) ([1]; 15 ppm): 0 (no larvae dead) | MBB rating (larvae dead) ([1]; 31 ppm): 0 (no larvae dead) | MBB rating (larvae dead) ([1]; 62 ppm): 0 (no larvae dead) | MBB rating (larvae dead) ([1]; 125 ppm): 1 (1 -25% larvae dead) | MBB rating (larvae dead) ([1]; 250 ppm): 1 (1 -25% larvae dead) | MBB rating (larvae dead) ([1]; 500 ppm): 5 (100% larvae dead) | SA rating (larvae dead) ([2]; 15 ppm): 0 (no larvae dead) | SA rating (larvae dead) ([2]; 31 ppm): 0 (no larvae dead) | SA rating (larvae dead) ([2]; 62 ppm): 0 (no larvae dead) | SA rating (larvae dead) ([2]; 125 ppm): 0 (no larvae dead) | SA rating (larvae dead) ([2]; 250 ppm): 0 (no larvae dead) | SA rating (larvae dead) ([2]; 500 ppm): 4 (76-99% larvae dead) | BA rating (dead) (bean aphids (BA); 15 ppm): 5 (100% dead) | BA rating (dead) (bean aphids (BA); 31 ppm): 5 (100% dead) | BA rating (dead) (bean aphids (BA); 62 ppm): 5 (100% dead) | BA rating (dead) (bean aphids (BA); 125 ppm): 5 (100% dead) | BA rating (dead) (bean aphids (BA); 250 ppm): 5 (100% dead) | BA rating (dead) (bean aphids (BA); 500 ppm): 5 (100% dead) | TSM rating (dead adults) (two-spotted mites (TSM); 500 ppm): 0 (no dead adults)

CN(C)C(=O)n1nc(C(C)(C)C)nc1SCC(Cl)=C(Cl)Cl [R=2,3,3-trichloro-allyl, R'=tert.butyl]
MBB rating (larvae dead) ([1]; 500 ppm): 0 (no larvae dead) | SA rating (larvae dead) ([2]; 500 ppm): 0 (no larvae dead) | BA rating (dead) (bean aphids (BA); 2 ppm): 3 (51-75% dead) | BA rating (dead) (bean aphids (BA); 4 ppm): 3 (51-75% dead) | BA rating (dead) (bean aphids (BA); 8 ppm): 4 (76-99% dead) | BA rating (dead) (bean aphids (BA); 15 ppm): 5 (100% dead) | BA rating (dead) (bean aphids (BA); 31 ppm): 5 (100% dead) | BA rating (dead) (bean aphids (BA); 62 ppm): 5 (100% dead) | BA rating (dead) (bean aphids (BA); 125 ppm): 5 (100% dead) | BA rating (dead) (bean aphids (BA); 250 ppm): 5 (100% dead) | BA rating (dead) (bean aphids (BA); 500 ppm): 4 (76-99% dead) | TSM rating (dead adults) (two-spotted mites (TSM); 500 ppm): 0 (no dead adults)

C=C(Cl)CSc1nc(C(C)(C)C)nn1C(=O)N(C)C [R=2-chloroallyl, R'=tert.butyl]
MBB rating (larvae dead) ([1]; 500 ppm): 2 (26-50% larvae dead) | SA rating (larvae dead) ([2]; 500 ppm): 0 (no larvae dead) | BA rating (dead) (bean aphids (BA); 2 ppm): 4 (76-99% dead) | BA rating (dead) (bean aphids (BA); 4 ppm): 4 (76-99% dead) | BA rating (dead) (bean aphids (BA); 8 ppm): 4 (76-99% dead) | BA rating (dead) (bean aphids (BA); 15 ppm): 5 (100% dead) | BA rating (dead) (bean aphids (BA); 31 ppm): 5 (100% dead) | BA rating (dead) (bean aphids (BA); 62 ppm): 5 (100% dead) | BA rating (dead) (bean aphids (BA); 125 ppm): 5 (100% dead) | BA rating (dead) (bean aphids (BA); 250 ppm): 5 (100% dead) | BA rating (dead) (bean aphids (BA); 500 ppm): 5 (100% dead) | TSM rating (dead adults) (two-spotted mites (TSM); 500 ppm): 0 (no dead adults)
